For series [1], the system named is genotype 1b (Con-1) HCV replicon in Huh-7 cells. Put plainly: HCV replicon luciferase assay. Conditions: Hepatitis C virus, Huh-7, 72 h, 1b replicon, Huh-7, Renilla luciferase, 3 days incubation. The class given is cell-based. Put shortly: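 Huh-7 cells carrying Con-1 genotype 1b replicon with Renilla luciferase reporter seeded onto titrated compound in DMEM, 4% FBS, 0.5% DMSO, 3 days at 37 °C. Luciferase read with EnduRen substrate (7.5 μM final) after ≥1 h; EC50 by four-parameter logistic fit.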
In general terms: Replicon systems follow genome replication, usually without infectious particles.

The target in series [2] is T1, NS5B proteins of HCV genotype 1b (Con1) (Hepatitis C virus genotype 1b, UniProt Q9WMX2).
T1 construct: Each untagged protein was expressed with an 18 amino acid C-terminal truncation to enhance the solubility; made in house; host or cells: E. coli BL21(DE3), pET21a
Put plainly: HCV NS5B RdRp enzyme assay. The class given is biochemical. The conditions noted are these: 1b enzyme. Put shortly: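 Untagged NS5B (C-terminal 18-aa truncation) in an on-bead scintillation-proximity format: poly A template (0.36 nM), biotin-dT12 primer (15 nM), 0.29 μM ³H-UTP, 7 nM enzyme, 20 mM Hepes pH 7.5, 2.5 mM MgCl2. Reactions ran 4–24 h at 30 °C (24 h runs with 24 h enzyme–inhibitor preincubation), stopped with EDTA. IC50 from ten concentrations, four-parameter logistic fit.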

The test system of series [3] is HCV. Conditions: cited from earlier work.
In series [4] the test system is HCV. Conditions: combination therapy; cited from earlier work.

A word on the EC50: it is the midpoint of the concentration-response curve. Higher therefore signals lower potency in that assay. By IC50 is commonly meant the concentration at which inhibition is half-maximal. A higher IC50 goes with weaker potency in that assay.

T1 sequence (Q9WMX2 2420-2992): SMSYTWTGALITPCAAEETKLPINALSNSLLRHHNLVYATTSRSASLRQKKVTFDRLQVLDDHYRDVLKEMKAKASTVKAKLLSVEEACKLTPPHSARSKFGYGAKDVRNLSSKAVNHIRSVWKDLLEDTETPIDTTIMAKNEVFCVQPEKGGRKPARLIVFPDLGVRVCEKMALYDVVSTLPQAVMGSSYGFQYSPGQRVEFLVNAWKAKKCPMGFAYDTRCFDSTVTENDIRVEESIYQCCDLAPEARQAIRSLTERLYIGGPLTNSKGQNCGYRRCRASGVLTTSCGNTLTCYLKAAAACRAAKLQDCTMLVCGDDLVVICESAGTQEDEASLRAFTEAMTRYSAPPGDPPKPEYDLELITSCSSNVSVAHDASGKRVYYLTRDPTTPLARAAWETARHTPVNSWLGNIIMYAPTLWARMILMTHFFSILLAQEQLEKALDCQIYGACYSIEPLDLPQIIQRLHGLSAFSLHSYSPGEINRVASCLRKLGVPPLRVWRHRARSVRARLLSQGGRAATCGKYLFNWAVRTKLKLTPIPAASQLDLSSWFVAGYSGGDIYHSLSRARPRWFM

On to `CNC(=O)c1c(-c2ccc(F)cc2)oc2cc(CCC(F)(F)F)c(-c3ccc(OC)c(C(=O)NC4(c5ncccn5)CC(OC(F)F)C4)c3)cc12` (stereo not shown) [Example 43, 5-(3-((3-(Difluoromethoxy)-1-(pyrimidin-2-yl)cyclobutyl)carbamoyl)-4-methoxyphenyl)-2-(4-fluorophenyl)-N-methyl-6-(3,3,3-trifluoropropyl)benzofuran-3-carboxamide], for which the EC50 in series [1] amounted to 5.6 nM. In addition, the IC50 in series [2] was found to be 10 nM.

Take `CCCc1cc2oc(-c3ccc(F)cc3)c(C(=O)NC)c2cc1-c1cccc(C(=O)NC2(c3ncccn3)CC(OC(F)(F)F)C2)c1` (stereo not shown) [Example 44, 2-(4-Fluorophenyl)-N-methyl-6-propyl-5-(3-((1-(pyrimidin-2-yl)-3-(trifluoromethoxy)cyclobutyl)carbamoyl)phenyl)benzofuran-3-carboxamide]: in series [1], the midpoint of the response, the EC50, lay at 9.51 nM. In series [2], this compound displayed an IC50 of 5.87 nM.

For `CNC(=O)c1c(-c2ccc(F)cc2)oc2cc(N(CCO)S(C)(=O)=O)c(C3CC3)cc12` [HCV-796], the hepatic toxicity entry with HCV [3] (extended dosing of the combination regimens) is “hepatic toxicity observed”. For the same compound, the “HCV RNA levels in patients” value in the series on HCV [3] (patients, transient as single agent, more robust with interferon and ribavirin) was “reduce HCV RNA levels”.

Take alpha-interferon and ribavirin: in the series on HCV [4], the “sustained efficacy, share of patients” value is on record as 40%.

The record behind these values is patent publication US11161837B2, “Benzofuran derivatives for the treatment of hepatitis C” (BRISTOL-MYERS SQUIBB COMPANY, priority 2016, dated 2021).
